Legend:
[1] = system: H2228; assay: Cell viability assay (CellTiter-Meiluncell Luminescent), tumor cell proliferation, H2228; settings: Homo sapiens, NCI-H2228, 96 h; for inhibition at 0.01 µM: read-out: Inhibition Rate at 10 nM (%); for inhibition at 0.5 µM: read-out: Inhibition Rate at 500 nM (%)
[2] = molecular target: T1, IKZF1 (Homo sapiens, UniProt Q13422+Q96SW2); assay: Western-blot assay, substrate protein degradation in hPBMCs: IKZF1; type: cell-based; settings: 24 hours of compound treatment, 50 nM and 500 nM
T1 construct: effects of the compounds of the present disclosure on the expression of target proteins in cells; endogenous in cells; host or cells: human PBMCs (hPBMCs)

[3] = molecular target: T2, CK1α (Homo sapiens, UniProt P48729+Q96SW2); assay: Western-blot assay, substrate protein degradation in hPBMCs: CK1α; type: cell-based; settings: 24 hours of compound treatment, 50 nM and 500 nM
T2 construct: effects of the compounds of the present disclosure on the expression of target proteins in cells; endogenous in cells; host or cells: human PBMCs (hPBMCs)

[4] = molecular target: T3, IKZF2 (Homo sapiens, UniProt Q96SW2+Q9UKS7); assay: Western-blot assay, substrate protein degradation in hPBMCs: IKZF2; type: cell-based; settings: 24 hours of compound treatment, 50 nM and 500 nM
T3 construct: effects of the compounds of the present disclosure on the expression of target proteins in cells; endogenous in cells; host or cells: human PBMCs (hPBMCs)

[5] = system: H292; assay: Cell viability assay (CellTiter-Meiluncell Luminescent), tumor cell proliferation, H292; settings: Homo sapiens, NCI-H292, 96 h; for inhibition at 0.01 µM: read-out: Inhibition Rate at 10 nM (%); for inhibition at 0.5 µM: read-out: Inhibition Rate at 500 nM (%)
[6] = molecular target: T4, GSPT1 (Homo sapiens, UniProt P15170+Q96SW2); assay: Western-blot assay, substrate protein degradation in hPBMCs: GSPT1; type: cell-based; settings: 24 hours of compound treatment, 50 nM and 500 nM
T4 construct: effects of the compounds of the present disclosure on the expression of target proteins in cells; endogenous in cells; host or cells: human PBMCs (hPBMCs)

[7] = molecular target: T5, WEE1 (Homo sapiens, UniProt P30291+Q96SW2); assay: Western-blot assay, substrate protein degradation in hPBMCs: WEE1; type: cell-based; settings: 24 hours of compound treatment, 50 nM and 500 nM
T5 construct: effects of the compounds of the present disclosure on the expression of target proteins in cells; endogenous in cells; host or cells: human PBMCs (hPBMCs)

[8] = system: MDA-MB-231; assay: Cell viability assay (CellTiter-Meiluncell Luminescent), tumor cell proliferation, MDA-MB-231; settings: Homo sapiens, MDA-MB-231, 96 h; for inhibition at 0.01 µM: read-out: Inhibition Rate at 10 nM (%); for inhibition at 0.5 µM: read-out: Inhibition Rate at 500 nM (%)
[9] = molecular target: T6, IKZF3 (Homo sapiens, UniProt Q96SW2+Q9UKT9); assay: Western-blot assay, substrate protein degradation in hPBMCs: IKZF3; type: cell-based; settings: 24 hours of compound treatment, 50 nM and 500 nM
T6 construct: effects of the compounds of the present disclosure on the expression of target proteins in cells; endogenous in cells; host or cells: human PBMCs (hPBMCs)
T6 sequence (Q9UKT9 whole entry): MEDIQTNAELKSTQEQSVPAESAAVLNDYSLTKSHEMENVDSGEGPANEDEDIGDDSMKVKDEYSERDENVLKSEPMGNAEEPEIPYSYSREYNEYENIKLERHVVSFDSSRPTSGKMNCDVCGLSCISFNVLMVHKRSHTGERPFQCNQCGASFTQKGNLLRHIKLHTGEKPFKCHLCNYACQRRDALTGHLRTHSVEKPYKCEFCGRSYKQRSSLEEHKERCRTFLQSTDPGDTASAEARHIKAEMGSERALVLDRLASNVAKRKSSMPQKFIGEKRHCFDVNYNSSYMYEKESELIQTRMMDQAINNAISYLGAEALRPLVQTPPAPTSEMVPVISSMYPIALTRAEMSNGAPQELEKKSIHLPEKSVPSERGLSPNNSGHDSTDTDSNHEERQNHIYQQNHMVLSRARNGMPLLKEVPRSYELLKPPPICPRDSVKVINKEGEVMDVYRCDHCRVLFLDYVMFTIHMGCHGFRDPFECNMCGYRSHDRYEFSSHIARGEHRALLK
T6 sequence (Q96SW2 whole entry): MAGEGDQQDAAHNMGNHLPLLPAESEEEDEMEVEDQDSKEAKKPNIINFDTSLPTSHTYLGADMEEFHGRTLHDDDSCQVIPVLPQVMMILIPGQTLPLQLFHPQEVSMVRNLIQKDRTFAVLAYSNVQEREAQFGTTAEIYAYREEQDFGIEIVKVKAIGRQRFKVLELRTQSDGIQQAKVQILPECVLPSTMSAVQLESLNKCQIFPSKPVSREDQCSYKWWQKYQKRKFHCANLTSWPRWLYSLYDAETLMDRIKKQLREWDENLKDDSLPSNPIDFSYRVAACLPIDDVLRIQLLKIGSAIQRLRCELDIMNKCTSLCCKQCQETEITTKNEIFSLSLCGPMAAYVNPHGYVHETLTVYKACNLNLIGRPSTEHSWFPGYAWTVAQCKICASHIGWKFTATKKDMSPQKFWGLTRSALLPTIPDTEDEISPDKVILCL
T6 sequence (Q16531 whole entry partner): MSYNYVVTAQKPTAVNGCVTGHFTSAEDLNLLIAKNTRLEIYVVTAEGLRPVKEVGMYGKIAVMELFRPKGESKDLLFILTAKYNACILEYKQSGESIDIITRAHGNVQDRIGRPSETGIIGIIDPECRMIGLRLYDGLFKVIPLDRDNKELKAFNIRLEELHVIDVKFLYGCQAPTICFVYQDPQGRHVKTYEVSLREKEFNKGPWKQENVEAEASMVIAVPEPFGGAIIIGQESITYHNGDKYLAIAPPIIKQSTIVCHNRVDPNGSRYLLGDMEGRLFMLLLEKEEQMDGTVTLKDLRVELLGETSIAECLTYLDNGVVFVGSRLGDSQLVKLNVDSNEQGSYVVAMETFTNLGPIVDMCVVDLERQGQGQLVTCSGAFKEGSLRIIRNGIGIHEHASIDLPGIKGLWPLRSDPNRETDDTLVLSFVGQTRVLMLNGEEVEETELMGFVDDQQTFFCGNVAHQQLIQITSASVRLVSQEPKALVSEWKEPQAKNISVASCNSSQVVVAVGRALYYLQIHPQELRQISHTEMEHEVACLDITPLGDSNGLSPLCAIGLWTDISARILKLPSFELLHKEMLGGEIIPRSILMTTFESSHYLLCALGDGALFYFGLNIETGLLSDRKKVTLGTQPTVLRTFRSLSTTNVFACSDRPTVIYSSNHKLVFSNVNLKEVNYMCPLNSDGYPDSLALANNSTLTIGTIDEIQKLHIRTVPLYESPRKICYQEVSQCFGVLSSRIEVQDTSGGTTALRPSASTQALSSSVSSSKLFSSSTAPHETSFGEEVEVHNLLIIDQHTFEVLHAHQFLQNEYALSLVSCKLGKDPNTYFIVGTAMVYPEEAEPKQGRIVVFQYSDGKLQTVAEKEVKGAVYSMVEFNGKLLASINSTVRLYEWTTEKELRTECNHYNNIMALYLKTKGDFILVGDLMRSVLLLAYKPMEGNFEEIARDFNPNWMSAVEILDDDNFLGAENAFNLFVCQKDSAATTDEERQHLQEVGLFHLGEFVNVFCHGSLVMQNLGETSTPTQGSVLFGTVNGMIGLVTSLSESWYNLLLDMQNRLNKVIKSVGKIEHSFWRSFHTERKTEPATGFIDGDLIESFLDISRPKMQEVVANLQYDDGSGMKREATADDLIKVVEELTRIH

T2 sequence (P48729 whole entry): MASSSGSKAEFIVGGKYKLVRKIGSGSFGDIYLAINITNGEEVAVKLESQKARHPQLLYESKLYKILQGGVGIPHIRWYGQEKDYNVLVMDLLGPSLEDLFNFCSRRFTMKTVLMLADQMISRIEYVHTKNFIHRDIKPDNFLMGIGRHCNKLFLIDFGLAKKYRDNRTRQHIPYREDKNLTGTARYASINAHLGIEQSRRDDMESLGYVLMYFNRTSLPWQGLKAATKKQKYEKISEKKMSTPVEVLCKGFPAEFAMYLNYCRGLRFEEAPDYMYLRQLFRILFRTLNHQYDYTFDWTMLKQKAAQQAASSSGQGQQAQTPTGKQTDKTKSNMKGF
T2 sequence (Q96SW2 whole entry): as the sequence (Q96SW2 whole entry) above
T2 sequence (Q16531 whole entry partner): as the sequence (Q16531 whole entry partner) above
T4 sequence (P15170 whole entry): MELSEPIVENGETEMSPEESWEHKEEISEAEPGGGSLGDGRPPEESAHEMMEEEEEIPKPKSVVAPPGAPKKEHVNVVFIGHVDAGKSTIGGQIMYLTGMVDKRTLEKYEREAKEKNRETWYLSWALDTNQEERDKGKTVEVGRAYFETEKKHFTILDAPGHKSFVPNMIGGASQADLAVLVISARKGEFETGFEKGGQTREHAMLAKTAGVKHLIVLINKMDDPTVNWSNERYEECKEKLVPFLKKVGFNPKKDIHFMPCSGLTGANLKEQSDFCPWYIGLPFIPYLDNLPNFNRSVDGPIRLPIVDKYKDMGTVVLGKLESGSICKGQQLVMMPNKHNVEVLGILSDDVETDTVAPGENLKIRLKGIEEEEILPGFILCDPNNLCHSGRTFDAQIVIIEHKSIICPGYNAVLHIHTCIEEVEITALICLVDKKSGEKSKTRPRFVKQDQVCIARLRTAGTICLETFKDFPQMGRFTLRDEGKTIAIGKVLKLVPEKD
T4 sequence (Q96SW2 whole entry): as the sequence (Q96SW2 whole entry) above
T4 sequence (Q16531 whole entry partner): as the sequence (Q16531 whole entry partner) above
T5 sequence (P30291 whole entry): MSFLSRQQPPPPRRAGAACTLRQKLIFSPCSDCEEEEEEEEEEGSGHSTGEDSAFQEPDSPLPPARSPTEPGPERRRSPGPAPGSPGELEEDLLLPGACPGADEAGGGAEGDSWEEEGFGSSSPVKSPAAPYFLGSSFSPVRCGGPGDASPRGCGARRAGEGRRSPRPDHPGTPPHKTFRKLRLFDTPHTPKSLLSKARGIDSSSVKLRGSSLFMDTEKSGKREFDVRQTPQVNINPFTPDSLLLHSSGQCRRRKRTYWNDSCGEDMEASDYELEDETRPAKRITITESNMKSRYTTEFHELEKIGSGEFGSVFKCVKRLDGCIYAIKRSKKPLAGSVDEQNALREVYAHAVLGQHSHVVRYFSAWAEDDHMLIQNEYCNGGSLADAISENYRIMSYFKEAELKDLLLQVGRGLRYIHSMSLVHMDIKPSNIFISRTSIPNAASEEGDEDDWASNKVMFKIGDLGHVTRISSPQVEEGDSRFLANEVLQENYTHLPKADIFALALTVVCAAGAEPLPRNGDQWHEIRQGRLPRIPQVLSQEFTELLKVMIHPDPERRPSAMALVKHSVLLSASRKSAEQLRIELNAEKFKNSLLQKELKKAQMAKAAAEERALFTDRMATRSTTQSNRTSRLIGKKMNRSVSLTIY
T5 sequence (Q96SW2 whole entry): as the sequence (Q96SW2 whole entry) above
T5 sequence (Q16531 whole entry partner): as the sequence (Q16531 whole entry partner) above
T1 sequence (Q13422 whole entry): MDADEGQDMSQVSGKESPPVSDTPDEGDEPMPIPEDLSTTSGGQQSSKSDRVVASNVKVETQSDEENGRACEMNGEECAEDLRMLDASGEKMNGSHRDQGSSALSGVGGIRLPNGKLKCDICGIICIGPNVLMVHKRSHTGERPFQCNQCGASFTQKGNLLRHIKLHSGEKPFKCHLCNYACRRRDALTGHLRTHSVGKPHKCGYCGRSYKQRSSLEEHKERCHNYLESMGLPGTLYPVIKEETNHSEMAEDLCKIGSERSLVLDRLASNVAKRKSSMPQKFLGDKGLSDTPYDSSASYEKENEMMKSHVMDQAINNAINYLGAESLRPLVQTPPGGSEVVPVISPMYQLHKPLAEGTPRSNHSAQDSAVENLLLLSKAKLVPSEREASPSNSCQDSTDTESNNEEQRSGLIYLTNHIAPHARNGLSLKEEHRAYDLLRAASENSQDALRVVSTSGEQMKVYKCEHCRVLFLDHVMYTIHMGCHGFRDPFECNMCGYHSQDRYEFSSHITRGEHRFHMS
T1 sequence (Q96SW2 whole entry): as the sequence (Q96SW2 whole entry) above
T1 sequence (Q16531 whole entry partner): as the sequence (Q16531 whole entry partner) above

| SMILES | inhibition at 0.01 µM [1] [%] | inhibition at 0.5 µM [1] [%] | substrate protein remaining % IKZF1 [2] | substrate protein remaining % CK1α [3] | substrate protein remaining % IKZF2 [4] | inhibition at 0.01 µM [5] [%] | inhibition at 0.5 µM [5] [%] | substrate protein remaining % GSPT1 [6] | substrate protein remaining % WEE1 [7] | inhibition at 0.01 µM [8] [%] | inhibition at 0.5 µM [8] [%] | substrate protein remaining % IKZF3 [9] |
| --- | --- | --- | --- | --- | --- | --- | --- | --- | --- | --- | --- | --- |
| O=C1CCN(N2C(=O)c3ccc(CNC45CC6CC(CC(O)(C6)C4)C5)cc3C2=O)C(=O)N1 [GT-07786, 2-(2,4-dioxotetrahydropyrimidin-1(2H)-yl)-5-((((1r,3s,5R,7S)-3-hydroxyadamantan-1-yl)amino)methyl)isoindoline-1,3-dione] | 10 to 15 | 25 to 30 | B (80%< substrate protein remaining %≤ 100%) | B (80%< substrate protein remaining %≤ 100%) | B (80%< substrate protein remaining %≤ 100%) | 10 to 15 | 20 to 40 | A (0% ≤ substrate protein remaining % ≤ 80%) | B (80%< substrate protein remaining %≤ 100%) | 15 to 18 | 25 to 40 | B (80%< substrate protein remaining %≤ 100%) |
| Cc1nc(C2CCN(Cc3ccc4c(c3)C(=O)N(N3CCC(=O)NC3=O)C4=O)CC2)c2c3c(sc2n1)CCCC3 [GT-08111, 2-(2,4-dioxotetrahydropyrimidin-1(2H)-yl)-5-((4-(2-methyl-5,6,7,8-tetrahydrobenzo[4,5]thieno[2,3-d]pyrimidin-4-yl)piperidin-1-yl)methyl)isoindoline-1,3-dione] | 20 to 25 | 25 to 30 | B (80%< substrate protein remaining %≤ 100%) | A (0% ≤ substrate protein remaining % ≤ 80%) | B (80%< substrate protein remaining %≤ 100%) | 20 to 40 | 20 to 40 | A (0% ≤ substrate protein remaining % ≤ 80%) | B (80%< substrate protein remaining %≤ 100%) | 25 to 40 | 25 to 40 | B (80%< substrate protein remaining %≤ 100%) |
| O=C1CCN(N2C(=O)c3ccc(CN4CCN(c5ncnc6sc(-c7ccccc7)cc56)CC4)cc3C2=O)C(=O)N1 [GT-08097, 2-(2,4-dioxotetrahydropyrimidin-1(2H)-yl)-5-((4-(6-phenylthieno[2,3-d]pyrimidin-4-yl)piperazin-1-yl)methyl)isoindoline-1,3-dione] | 15 to 20 | 30 to 40 | B (80%< substrate protein remaining %≤ 100%) | A (0% ≤ substrate protein remaining % ≤ 80%) | B (80%< substrate protein remaining %≤ 100%) | 5 to 10 | 10 to 15 | A (0% ≤ substrate protein remaining % ≤ 80%) | A (0% ≤ substrate protein remaining % ≤ 80%) | 10 to 15 | 18 to 25 | B (80%< substrate protein remaining %≤ 100%) |
| O=C1CCN(N2Cc3cc(CN4CCC(c5ncnc6sc7c(c56)CCCC7)CC4)ccc3C2=O)C(=O)N1 [GT-08112, 1-(1-oxo-5-((4-(5,6,7,8-tetrahydrobenzo[4,5]thieno[2,3-d]pyrimidin-4-yl)piperidin-1-yl)methyl)isoindolin-2-yl)dihydropyrimidine-2,4(1H,3H)-dione] | 15 to 20 | 25 to 30 | B (80%< substrate protein remaining %≤ 100%) | B (80%< substrate protein remaining %≤ 100%) | B (80%< substrate protein remaining %≤ 100%) | 15 to 20 | 20 to 40 | A (0% ≤ substrate protein remaining % ≤ 80%) | B (80%< substrate protein remaining %≤ 100%) | 15 to 18 | 25 to 40 | B (80%< substrate protein remaining %≤ 100%) |

Reference: patent publication EP4722207A1, “OXOISOINDOLINYL-SUBSTITUTED TETRAHYDROPYRIMIDINEDIONE DERIVATIVE AND USE THEREOF” (Gluetacs Therapeutics (Shanghai) Co., Ltd., priority 2023, dated 2024)
